According to patent US20240067931A1, “METHODS AND COMPOSITIONS FOR SMALL MOLECULE BASED PANCREATIC BETA CELL INDUCTION” (Trailhead Biosystems Inc., priority 2022, published 2024):
“Also recorded” adds a separate entry of the source. Peptide text beside a SMILES is read from it.

B1: Cardiotropin: factor tested in HD-DoE for INS induction (protein, UniProt Q16619 1-201, looked up)
Cardiotrophin-1: MSRREGSLEDPQTDSSVSLLPHLEAKIRQTHSLAHLLTKYAEQLLQEYVQLQGDPFGLPSFSPPRLPVAGLSAPAPSHAGLPVHERLRLDAAALAALPPLLDAVCRRQAELNPRAPRLLRRLEDAARQARALGAAVEALLAALGAANRGPRAEPPAATASAASATGVFPAKVLGLRVCGLYREWLSRTEGDLGQLLPGGSA

Assays:
Assay type in all cases: cell-based, human
INS = assay: HD-DoE screening for optimal de novo beta cell induction (stage 3 cultures, 3 day perturbation), INS induction; conditions: for factor contribution, induction of INS: Example 19, four HD-DoE panels, FIG. 20; for effect on INS induction: heat map FIG. 21, dynamic profiling FIGS. 22-25
Experimental: FIG. 18 HD-DoE screening for optimal de novo beta cell induction. Culture of the iPSC cell line CR01 were differentiated to a DFE state for 3 days. These cultures were then incubated in the presence of stage 2 media for an additional 3 days. These cultures were then incubated for an additional 5 days in the presence of GSI-XX and A8301 followed by a 3 day incubation in the presence of a perturbation matrix composed of the compounds indicated in the different panels. This was performed 3 separate times (once for each of the 3 panels). These HD-DoE experiments were then analyzed using MODDE software for maximal induction of insulin. The predicted results are shown.
FIG. 20 HD-DoE screening for optimal de novo beta cell induction. Cultures of the iPSC cell line CR01 were differentiated to a DFE state for 3 days. These cultures were then incubated in the presence of stage 2 media for an additional 3 days. These cultures were then incubated for an additional 5 days in the presence of GSI-XX and A8301 followed by a 3 day incubation in the presence of a perturbation matrix composed of the compounds indicated in the different panels. This was performed 4 separate times (once for each of the 4 panels). These HD-DoE experiments were then analyzed using MODDE software for the maximal induction of Insulin. The predicted results are shown.
(§1) FIGS. 22-25. Dynamic profiling of endocrine sub-type regulation. One of the HD-DoE experiments shown in Example 19 was analyzed using MODDE software and dynamic profiling of the endocrine products GCG, SST and INS are shown.
To define factors contributing to the activation of INS, a series of HD-DoE perturbations were performed using factors chosen to target different aspects of beta cell biology.
To define factors contributing to the activation of INS, a series HD-DoE perturbations were performed using factors chosen to target different aspects of beta cell biology.

[1] = system: GCG, SST, PDX1, PAX4, MAFA and NKX2.2; assay: HD-DoE stage 3 screening, heat map and dynamic profiling of endocrine and beta cell genes; conditions: for effect on beta cell specific transcription factors / all genes optimized: heat maps FIG. 19 and FIG. 21; for effect on beta cell state / endocrine fate: heat map FIG. 21, dynamic profiling FIGS. 22-25
Excerpt: (§2) FIG. 19 Heat map showing descending factor contributions for the induction of INS. The three HD-DoE experiments shown in Example 17 were used for modeling the maximal expression of several other genes, including GCG, SST, PDX1, PAX4, MAFA and NKX2.2, which are indicative of endocrine cell types with a focus on pancreatic beta cells as indicated at the top of the heat map. The relative factor contributions for the activation of these different genes were then used to generate a secondary heat map representative of the gene induction logic and then ranked according to the compound's ability to induce INS. Dark blue colors indicate a high inductive capacity, while dark red colors indicative of a highly repressive capacity for activation of the genes are shown.
(§3) FIG. 21 Heat map showing descending factor contributions for the induction of INS. The four HD-DoE experiments shown in Example 19 were used for modeling the maximal expression of several other genes. These genes were GCG, SST, PDX1, PAX4, MAFA and NKX2.2. These genes are all indicative of endocrine cell types with a focus on the beta cell as indicated at the top of the heatmap. The relative factor contribution for the activation of these different genes were then used to generate a secondary heat map representative of these genes induction logic and then ranked order according to the compounds ability to induce INS. Dark blue indicates high inductive capacity, while dark red is indicative of a highly repressive effect for the activation of the genes shown.
as §1
To ascertain which factors could potentially favor the beta cell over other endocrine cell types, optimizers for markers of the other endocrine cell types and beta cell specific markers were compared. The relative factor contribution from the different optimizers were compared.
Optimizers for the main pancreatic endocrine hormones and beta cell-specific transcription factors were generated to compare their contribution factors for this series of HD-DoE. Compounds that could selectively favor the differentiation of the beta cell over that of the alpha and delta cells were identified in this manner.

SST (delta cell marker) = assay: HD-DoE stage 3 screening, heat map and dynamic profiling: SST; conditions: heat map FIG. 21, dynamic profiling FIGS. 22-25
Excerpt: as §2, §3, §1

GCG (alpha cell marker) = assay: HD-DoE stage 3 screening, heat map and dynamic profiling: GCG; conditions: heat map FIG. 21, dynamic profiling FIGS. 22-25
Excerpt: as §2, §3, §1

PDX1 = assay: HD-DoE perturbation matrix on DFE culture, modelling for maximal PDX1 induction; conditions: DFE culture, HD-DoE, FIG. 11
Excerpt: FIG. 11 Modelling for maximal PDX1 induction. Cultures of the iPSC cell line Cr01 was differentiated to a DFE state and then subjected to an HD-DoE perturbation matrix composed of the compounds indicated in the figure. MODDE software was used to predict the optimal condition for maximizing PDX1 activation. Predicted factor additives for this optimization and the relative expression under these conditions for the genes measured are shown.
FIG. 12 Coefficient plots show main effectors for pancreatic progenitor generation from a DFE precursor. Coefficients for the HD-DoE design shown in Example 9 are shown for PDX1 and PTF1A. The co-expression of these two genes is indicative of a pancreatic field.
To determine the best way for inducing a pancreatic fate from a DFE progenitor, a subsequent HD-DoE analysis was performed. Exposing a DFE culture to a perturbation matrix composed of all previously identified effectors shown to have a positive effect on PDX1 activation was used to define optimal conditions for PDX1 induction.

| Molecule | factor contribution, induction of INS (INS) | effect on SST induction / delta cell fate (SST (delta cell marker)) | effect on GCG induction / alpha cell fate (GCG (alpha cell marker)) | effect on INS induction (INS) | other results |
| --- | --- | --- | --- | --- | --- |
| CN(CCOc1ccc(CC2SC(=O)NC2=O)cc1)c1ccccn1 (stereo not drawn) [rosiglitazone] | 6.0 |  |  |  |  |
| CC(C)Cn1c(=O)n(C)c(=O)c2[nH]cnc21 [IBMX] |  |  |  |  | effect on beta cell specific transcription factors / all genes optimized [1]: beneficial for all genes optimized |
| CCC(=O)O [propionate] | 5.3 | inhibited | inhibited | significantly increased INS levels | effect on beta cell state / endocrine fate [1]: preferentially favoring the beta cell fate, though to a lesser level |
| NCCc1c[nH]c2ccc(O)cc12 [serotonin] |  | inhibited SST induction | strongly activated GCG induction |  |  |
| C/C(=C\c1ccc(C(=O)O)cc1)c1ccc2c(c1)C(C)(C)CCC2(C)C [TTNPB] | 12.7 | strongly inhibiting; also recorded: inhibitory | strongly inhibiting; also recorded: inhibitory |  | effect on beta cell state / endocrine fate [1]: strongest inducers of the beta cell state; effect on beta cell specific transcription factors / all genes optimized [1]: strongly activate all beta cell specific transcription factors |
| CC1=NS(=O)(=O)c2cc(Cl)ccc2N1 [diazoxide] |  |  |  | positively increased INS induction, though not significantly |  |
| NCCc1c[nH]c2ccccc12 [tryptamine] | 21.2 | no effect | no effect | strongest INS inducing effects |  |
| Cc1nn(-c2ccccc2)c(C)c1/C=N/N1CCN(Cc2ccccc2)CC1 [SANT1] | 15.0 | increased induction | increased induction | stronger for INS induction | factor contribution, PDX1 activation (PDX1): 5.0; effect on beta cell state / endocrine fate [1]: increased induction of endocrine fates without total specificity towards the beta cell |
| Clc1cccc(Cl)c1N=C1NCCN1 [clonidine] |  |  |  | contributed to the induction of INS | contribution factor, activation of INS (INS; Example 17, three HD-DoE panels, FIG. 18): 23.4 |
| NC(=O)CC[C@H](N)C(=O)O [glutamine] | 10.4 |  |  |  |  |
| obestatin | 9.6 |  |  | contributed to the induction of INS |  |
| C[C@H](N)C(=O)N[C@@H](CCC(N)=O)C(=O)O [glutamax] (H-Ala-Gln-OH) |  | increased induction | increased induction | stronger for INS induction | effect on beta cell state / endocrine fate [1]: preferentially favoring the beta cell fate, though to a lesser level; also recorded: positive inducer of endocrine fate; also recorded: increased induction of endocrine fates without total specificity towards the beta cell |
| CC(C)n1nc(C#Cc2ccccc2)c2c(N)ncnc21 [SPP86] | 4.8 |  |  | positive effect on INS induction, though with far less contribution |  |
| Clc1ccc(C2(c3ccc(-c4cn[nH]c4)cc3)CCNCC2)cc1 [AT7867] |  |  |  |  | factor contribution, PDX1 activation (PDX1): 15.5 |
| FGF19: FGF pathway agonist |  |  |  | contributed to overall INS induction, but to a much smaller degree |  |
| Nc1nc(Nc2ccc3c(c2)CC[C@@H](N2CCCC2)CC3)nn1-c1cc2c(nn1)-c1ccccc1CCC2 [R248] | 22.9 |  |  |  | effect on beta cell state / endocrine fate [1]: strongest inducers of the beta cell state |
| COc1cc(O)c2c(c1)/C=C/C[C@H](O)[C@H](O)C(=O)/C=C\C[C@H](C)OC2=O [(5Z)-7-oxozeanol, (5Z)-7-Oxozeaenol] |  |  |  |  | factor contribution, PDX1 activation (PDX1): 8.2 |
| Nc1nc(OC(c2ccc(-c3cccc(F)c3)cc2)C(F)(F)F)cc(-c2ccc(C[C@H](N)C(=O)O)cc2)n1 (stereo partly drawn) [LP533401] | 10.7 |  |  | contributed to the induction of INS |  |
| CC1=C(/C=C/C(C)=C/C=C/C(C)=C/C(=O)O)C(C)(C)CCC1 [retinoic acid] |  |  |  |  | factor contribution, PDX1 activation (PDX1): 19.2 |
| B1 |  |  |  | positively increased INS induction, though not significantly |  |
